Assay results reported in PubChem BioAssay AID330 (DTP/NCI, 2004).
Several values for one entry are separate records, joined by “and”; a condition that tells them apart may be missing. Identical values can stand only once. Toxic doses and inconclusive results are not listed. The calls were made as follows: active = survival T/C of 150% or more; inactive = T/C below 125% in these data.

Tested on: P388 leukemia ip, CD2F1 mice, survival T/C
Assay: NCI In Vivo Anticancer Drug Screen. Data for tumor model P388 Leukemia (intraperitoneal) in CD2F1 (CDF1) mice
Details: endpoint: median survival time, higher = longer survival
Outline: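 Mice carrying the transplanted tumor received test compound or vehicle. Survival was recorded in each group, and the value is the treated-group measurement divided by that of the vehicle-treated control group.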

[1] = dose: 50.0 mg/kg/injection, schedule: Q01DX009 (ip), vehicle: saline with Tween-80
[2] = dose: 100.0 mg/kg/injection, schedule: Q01DX009 (ip), vehicle: saline with Tween-80
[3] = dose: 200.0 mg/kg/injection, schedule: Q01DX009 (ip), vehicle: saline with Tween-80
[4] = dose: 400.0 mg/kg/injection, schedule: Q01DX009 (ip), vehicle: saline with Tween-80
[5] = dose: 50.0 mg/kg/injection, schedule: Q01DX009 (ip), vehicle: Klucel (hydroxypropylcellulose) (HPC)
[6] = dose: 100.0 mg/kg/injection, schedule: Q01DX009 (ip), vehicle: Klucel (hydroxypropylcellulose) (HPC)
[7] = dose: 200.0 mg/kg/injection, schedule: Q01DX009 (ip), vehicle: Klucel (hydroxypropylcellulose) (HPC)
[8] = dose: 50.0 mg/kg/injection, schedule: Q01DX005 (ip), vehicle: saline with Tween-80
[9] = dose: 100.0 mg/kg/injection, schedule: Q01DX005 (ip), vehicle: saline with Tween-80
[10] = dose: 200.0 mg/kg/injection, schedule: Q01DX005 (ip), vehicle: saline with Tween-80
[11] = dose: 60.0 mg/kg/injection, schedule: Q01DX005 (ip), vehicle: saline with Tween-80
[12] = dose: 120.0 mg/kg/injection, schedule: Q01DX005 (ip), vehicle: saline with Tween-80
[13] = dose: 240.0 mg/kg/injection, schedule: Q01DX005 (ip), vehicle: saline with Tween-80
[14] = dose: 12.5 mg/kg/injection, schedule: Q01DX005 (ip), vehicle: Klucel (hydroxypropylcellulose) (HPC)
[15] = dose: 25.0 mg/kg/injection, schedule: Q01DX005 (ip), vehicle: Klucel (hydroxypropylcellulose) (HPC)
[16] = dose: 50.0 mg/kg/injection, schedule: Q01DX005 (ip), vehicle: Klucel (hydroxypropylcellulose) (HPC)

Measured: T/C

CCn1c2ccccc2c2cc(/C=N/N=C/c3ccc4c(c3)c3ccccc3n4CC)ccc21
inactive: dose: 3.12 mg/kg/injection, schedule: Q01DX005 (ip), vehicle: saline with Tween-80 93 % of control | dose: 6.25 mg/kg/injection, schedule: Q01DX005 (ip), vehicle: saline with Tween-80 90 % of control | dose: 12.5 mg/kg/injection, schedule: Q01DX005 (ip), vehicle: saline with Tween-80 88 % of control

CCOC(=O)c1ccc(NC(=O)OCc2ccccc2)cc1
inactive: [1] 91 % of control | [2] 86 % of control | [3] 96 % of control | [4] 107 % of control

CCC(CC)C1NC(C(=O)O)CS1 (stereo unspecified)
inactive: dose: 50.0 mg/kg/injection, schedule: Q01DX009 (ip), vehicle: suspension in saline 93 % of control | dose: 100.0 mg/kg/injection, schedule: Q01DX009 (ip), vehicle: suspension in saline 96 % of control | dose: 200.0 mg/kg/injection, schedule: Q01DX009 (ip), vehicle: suspension in saline 92 % of control

Cc1ccc2[nH]c(=S)n(CCc3ccccc3)c(=O)c2c1
inactive: [5] 99 % of control | [6] 97 % of control | [7] 97 % of control

CCC(C)C(NC(=O)C(F)(F)F)C(=O)O (stereo unspecified)
inactive: [1] 98 % of control | [2] 98 % of control | [3] 103 % of control

COC(=O)c1cc(=O)c2c(ccc3oc(=O)ccc32)[nH]1
inactive: [8] 88 % of control | [9] 88 % of control | [10] 90 % of control

O=C1CN(c2cccc(C(F)(F)F)c2)C(=O)CN1/N=C/c1cccnc1
inactive: [8] 94 % of control | [9] 97 % of control | [10] 94 % of control

Cc1nccc2nnc(C)n12
inactive: dose: 100.0 mg/kg/injection, schedule: Q04DX003 (ip), vehicle: saline 98 % of control | dose: 200.0 mg/kg/injection, schedule: Q04DX003 (ip), vehicle: saline 98 % of control | dose: 400.0 mg/kg/injection, schedule: Q04DX003 (ip), vehicle: saline 95 % of control

CN1NC(c2ccccc2)NN(C)C1=S
inactive: dose: 60.0 mg/kg/injection, schedule: Q01DX005 (ip), vehicle: Klucel (hydroxypropylcellulose) (HPC) 101 % of control | dose: 120.0 mg/kg/injection, schedule: Q01DX005 (ip), vehicle: Klucel (hydroxypropylcellulose) (HPC) 98 % of control | dose: 240.0 mg/kg/injection, schedule: Q01DX005 (ip), vehicle: Klucel (hydroxypropylcellulose) (HPC) 106 % of control

CCNC(=S)N/N=C(/c1ccccc1)c1ccccn1
inactive: [5] 105 % of control | [6] 95 % of control | [7] 115 % of control

NNC(=O)C1CC2CCCCC2CC1O (stereo unspecified)
inactive: dose: 100.0 mg/kg/injection, schedule: Q04DX002 (ip), vehicle: Klucel (hydroxypropylcellulose) (HPC) 101 % of control | dose: 200.0 mg/kg/injection, schedule: Q04DX002 (ip), vehicle: Klucel (hydroxypropylcellulose) (HPC) 99 % of control | dose: 400.0 mg/kg/injection, schedule: Q04DX002 (ip), vehicle: Klucel (hydroxypropylcellulose) (HPC) 108 % of control

CC(CC(=O)c1ccccc1)=NCC(O)CN=C(C)CC(=O)c1ccccc1 (stereo unspecified)
inactive: [1] 96 % of control | [2] 94 % of control | [3] 93 % of control

ClC(Cl)(Cl)C(c1ccc(Br)cc1)c1ccc(Br)cc1
inactive: [11] 95 % of control | [12] 94 % of control | [13] 95 % of control

Cc1cc2nc(N)[nH]c2cc1C
inactive: dose: 6.25 mg/kg/injection, schedule: Q01DX009 (ip), vehicle: saline with Tween-80 102 % of control | dose: 12.5 mg/kg/injection, schedule: Q01DX009 (ip), vehicle: saline with Tween-80 103 % of control | dose: 25.0 mg/kg/injection, schedule: Q01DX009 (ip), vehicle: saline with Tween-80 105 % of control | [1] 103 % of control

CN(C)C(=O)c1cccc(COc2ccc(N)cc2Cl)c1
inactive: [2] 95 % of control | [3] 90 % of control | [4] 95 % of control

CCCNc1ccnc(F)n1
inactive: [14] 100 % of control | [15] 102 % of control | [16] 106 % of control | dose: 100.0 mg/kg/injection, schedule: Q01DX005 (ip), vehicle: Klucel (hydroxypropylcellulose) (HPC) 105 % of control

CC(C)C(Nc1nncs1)Nc1nncs1
inactive: [11] 103 % of control | [12] 109 % of control | [13] 118 % of control

Clc1ccc2nc3c(c(N4CCCCC4)c2c1)CCCC3
inactive: [8] 105 % of control | [9] 105 % of control | [10] 100 % of control

COc1ccc2c(c1)C=C([N+](=O)[O-])C(N1CCOCC1)O2 (stereo unspecified)
inactive: [14] 106 % of control | [15] 108 % of control | [16] 101 % of control and 109 % of control

O=C(O)c1ccc(NC(=S)NC(=O)c2cccc(Br)c2)cc1
inactive: [11] 91 % of control | [12] 86 % of control

C=C(/C=C/CCCC)NC(=O)OCc1ccccc1
inactive: [11] 97 % of control | [12] 96 % of control | [13] 104 % of control

NC(=S)c1ccc(/C=N/c2nccs2)cc1
inactive: dose: 100.0 mg/kg/injection, schedule: Q01DX001 (ip), vehicle: Klucel (hydroxypropylcellulose) (HPC) 105 % of control | dose: 200.0 mg/kg/injection, schedule: Q01DX001 (ip), vehicle: Klucel (hydroxypropylcellulose) (HPC) 104 % of control | dose: 400.0 mg/kg/injection, schedule: Q01DX001 (ip), vehicle: Klucel (hydroxypropylcellulose) (HPC) 105 % of control

O=C1c2ccc([N+](=O)[O-])cc2C(=O)N1CC[P+](c1ccccc1)(c1ccccc1)c1ccccc1
inactive: dose: 0.78 mg/kg/injection, schedule: Q01DX009 (ip), vehicle: water 100 % of control | dose: 1.56 mg/kg/injection, schedule: Q01DX009 (ip), vehicle: water 100 % of control | dose: 3.13 mg/kg/injection, schedule: Q01DX009 (ip), vehicle: water 103 % of control | dose: 6.25 mg/kg/injection, schedule: Q01DX009 (ip), vehicle: water 98 % of control | dose: 12.5 mg/kg/injection, schedule: Q01DX009 (ip), vehicle: water 98 % of control | dose: 25.0 mg/kg/injection, schedule: Q01DX009 (ip), vehicle: water 106 % of control and 107 % of control

COc1cc(Nc2ccccc2)c2c(c1N)C(=O)c1ccccc1C2=O
inactive: [8] 91 % of control | [9] 88 % of control

COc1cccc2c1C(=O)c1c(O)c3c(c(O)c1C2=O)CC(O)(C(C)=O)CC3OC1CCN(c2ccccc2)CC(C)O1 (stereo unspecified)
inactive: dose: 3.13 mg/kg/injection, schedule: Q04DX003 (ip), vehicle: distilled water + Tween-80 96 % of control | dose: 6.25 mg/kg/injection, schedule: Q04DX003 (ip), vehicle: distilled water + Tween-80 98 % of control | dose: 12.5 mg/kg/injection, schedule: Q04DX003 (ip), vehicle: distilled water + Tween-80 100 % of control | dose: 25.0 mg/kg/injection, schedule: Q04DX003 (ip), vehicle: distilled water + Tween-80 98 % of control | dose: 50.0 mg/kg/injection, schedule: Q04DX003 (ip), vehicle: distilled water + Tween-80 105 % of control
